Data from patent US8680300B2, “Dioxanes derived from regrouping carbohydrates and C-glycosides, process for obtaining same and uses thereof” (Universidad de la Laguna, priority 2009, dated 2014).

What was measured:
[1] = test system: cell line HT22; assay: Visualisation of HT22 cultures after exposure to the compounds; type: cell-based, mouse; conditions: HT22, 5 μM, after 4-5 hours of treatment
Experimental: (§1) Two stable cell lines of different origins were used for these trials: neural cell line HT22 from mouse hippocampus and line MCF7 from human breast cancer.
(§2) Both cell lines were grown in a DMEM culture medium supplemented with 10% foetal bovine serum and antibiotics at 37° C. with a 5% CO2 atmosphere. 35-mm Petri dishes were used as growth media. […] The compounds were previously diluted in DMSO.
(§3) (The control cultures of FIG. 3 were compared to the cultures of HT22 and MCF7 exposed to the compounds—FIGS. 4 and 5 respectively—).

[2] = test system: neural cell line HT22; assay: Cytotoxicity trial, trypan blue dye, cell line HT22; type: cell-based, mouse; conditions: HT22, concentrations of 1 and 5 μM
Experimental: as §1
(§4) Both cell lines were grown in a DMEM culture medium supplemented with 10% foetal bovine serum and antibiotics at 37° C. with a 5% CO2 atmosphere. 35-mm Petri dishes were used as growth media. When the cultures reached approximately 80% confluence they were exposed to the different compounds of the study for 24 hours at 37° C., at concentrations of 0.1, 1 and 5 μM. The compounds were previously diluted in DMSO.
(§5) For the cytotoxicity trials, after 24 hours of treatment with the compounds, the cells were treated with trypsin, resuspending them in DMEM and counting them. On one hand, an aliquot of 100 μl was preserved for the total count of the cells present in Neubauer chambers. On the other, the rest of the cell volume (approximately 1 ml) was processed for dyeing with trypan blue to visualise those cells susceptible to dyeing (non-viable cells) against intact cells (viable cells). To this end, the ViCell (Beckman Coulter) quantifier was used.

[3] = test system: cell line MCF7; assay: Visualisation of MCF7 cultures after exposure to the compounds; type: cell-based, human; conditions: MCF7, 5 μM, after 4-5 hours of treatment
Experimental: as §1, §2, §3

[4] = test system: MCF7 breast cancer cells; assay: Cytotoxicity trial, trypan blue dye, cell line MCF7; type: cell-based, human; conditions: for cytotoxicity (conclusion, in words): MCF7, concentrations of 1 and 5 μM
Experimental: as §1, §4, §5

[5] = test system: MCF7 breast cancer cells; assay: Cell proliferation trial, cell line MCF7; type: cell-based, human
Experimental: as §1, §4, §5

[6] = test system: neural cell line HT22; assay: Cell proliferation trial, cell line HT22; type: cell-based, mouse; conditions: for antiproliferative effect (conclusion, in words): HT22; for decrease in normal proliferation: HT22, 24 hours, versus medium (DMSO at 0.01%), concentration not given
Experimental: as §1, §4, §5

SMILES | cytotoxic effect on visualisation of cultures [1] | cytotoxicity (conclusion, in words) [2] | cytotoxic effect on visualisation of cultures [3] | cytotoxicity (conclusion, in words) [4] | antiproliferative effect (conclusion, in words) ([5]; MCF7) | proliferation inhibition (in words) ([5]; MCF7, 24 hours, versus medium (DMSO at 0.01%)) | antiproliferative effect (conclusion, in words) [6] | decrease in normal proliferation [6] | toxicity (percentage of cell death, trypan blue) ([4]; MCF7, 24 hours, normalised to medium (DMSO at 0.01%), concentration not given) | toxicity (in words) ([4]; MCF7, 24 hours, concentration not given)
CO[C@H]1O[C@@H](OC(C)=O)[C@H]([C@@H](COC(C)=O)OC)O[C@@H]1OC [Compound 6] | significant cytotoxic effect | highly cytotoxic | significant cytotoxic effect | highly cytotoxic | – | – | – | – | – | –
CO[C@@H]1O[C@@H](OC(C)=O)[C@H]([C@@H](COC(C)=O)OC)O[C@@H]1OC [Compound 7] | significant cytotoxic effect | highly cytotoxic | significant cytotoxic effect | highly cytotoxic | – | – | – | – | – | –
CO[C@H]1O[C@@H]2OC[C@@H](OC)[C@@H]2O[C@@H]1OC [Compound 8] | – | – | – | – | antiproliferative effects | partial proliferation inhibition | antiproliferative effects | approximately 50% | – | –
CO[C@@H]1O[C@@H]2OC[C@@H](OC)[C@@H]2O[C@@H]1OC [Compound 9] | – | – | – | – | – | – | antiproliferative effects | approximately 50% | > 65% | high toxicity
